In patent US11752140B2, “Compositions comprising substituted benzofuroquinolizine and psychoactive drug” (VETCARE OY, priority 2016, dated 2023):

Columns and labels:
dogs [1] = details: medetomidine 20 μg/kg IM or 10 μg/kg IV alone (Rolfe 2012); cited from earlier work
dogs [2] = details: MK-467 250, 500, 750 μg/kg with dexmedetomidine 10 μg/kg IV (Restitutti 2011); cited from earlier work
[3] = Plasma concentrations of butorphanol and midazolam in dogs after IM administration of composition with or without MK-467; details: for Peak plasma concentration / Time at which peak plasma concentration was reached from the IM administration: IM
Experimental: Plasma Concentrations of Butorphanol and Midazolam in Dogs after IM Administration of a Composition Comprising MK-467, Butorphanol, Midazolam and Medetomidine, Compared with Composition without MK-467
A liquid aqueous composition comprising MK-467, butorphanol tartrate, midazolam and medetomidine was administered to a dog intramuscularly (IM) to provide a dosage of MK-467 500 μg/kg, butorphanol 100 μg/kg, midazolam 200 μg/kg and medetomidine 20 μg/kg.
Five purpose-bred, adult beagles were used for this study.
Study design: A prospective, randomized, experimental cross-over study.
Each dog was treated for two times with a 14-day wash-out period:
Treatment 1. medetomidine (20 μg/kg)+butorphanol (100 μg/kg)+midazolam (0.2 mg/kg)
Treatment 2. medetomidine (20 μg/kg)+MK-467 (MK) (500 μg/kg)+butorphanol (100 μg/kg)+midazolam (0.2 mg/kg).
For treatment 1. 1 mL of medetomidine (Dorbene 1 mg/mL) was diluted with 1 mL of saline. For treatment 2. 25 mg of MK-467 was mixed with 1 mL of medetomidine, and 1 mL of saline was added. The mixture, butorphanol (Torpudor 10 mg/mL) and midazolam (Midazolam Hameln 5 mg/mL) were aspirated into a single syringe. The end volume of the injectable in both treatments was 0.09 mL/kg.
Dog was positioned laterally and the drugs were injected IM into the epaxial muscle. Central venous blood was sampled into EDTA-tubes at 0, 3, 6, 10, 15, 20, 25, 30, 40, 50, 60 and 90 minutes after drug administration. The plasma concentrations were analyzed with LC/MS/MS for plasma concentrations of dexmedetomidine, midazolam and butorphanol.

[4] = in the presence of MK-467 500 μg/kg, with medetomidine 20 μg/kg, butorphanol 100 μg/kg, midazolam 200 μg/kg in the same syringe
[5] = without MK-467, medetomidine, butorphanol, midazolam in the same syringe
[6] = parenteral extravascular administration, composition with MK-467

Compound | Heart rate, Pvo(2) and cardiac index compared with baseline (dogs [1]) | MAP, SVR and oxygen extraction ratio compared with baseline (dogs [1]) | Effect on bispectral index (BIS) values (dogs [2]) | Peak plasma concentration [3, 4] [ng/mL] | Time at which peak plasma concentration was reached from the IM administration ([3]; with MK-467) [min] | Time at which peak plasma concentration was reached from the IM administration ([3]; without MK-467) [min] | Peak plasma concentration [3, 5] [ng/mL] | Time at which maximum plasma concentration was reached [3, 6] [min] | Time at which maximum plasma concentration was reached ([3]; without MK-467) [min]
Cc1cccc(C(C)c2cnc[nH]2)c1C (racemic) [medetomidine, (RS)-4-[1-(2,3-dimethylphenyl)ethyl]-3H-imidazole] | significantly lower | significantly higher | – | – | – | – | – | – | –
Cc1cccc([C@H](C)c2cnc[nH]2)c1C [Dexmedetomidine, (S)-4-[1-(2,3-Dimethylphenyl)ethyl]-3H-imidazole] | – | – | decreased BIS-values | – | – | – | – | – | –
Oc1ccc2c(c1)[C@@]13CCCC[C@@]1(O)[C@@H](C2)N(CC1CCC1)CC3 [butorphanol] | – | – | – | 17 | ≤ 10 | ≤ 30 | 11 | 10 | 30
Cc1ncc2n1-c1ccc(Cl)cc1C(c1ccccc1F)=NC2 [midazolam] | – | – | – | 133 | ≤ 5 | ≤ 30 | 71 | 5 | 20
